Data reported in ChEMBL document CHEMBL1201862, “PubChem BioAssay data set” (2004).
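Following 48 hours of exposure in 96-well plates, responses at five concentrations were used to interpolate endpoints linearly. Abbreviation: GI50, concentration required for 50% inhibition of growth.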 Calls of active or inactive are those of the source. Cut-off read from the data, not from the text of the source: active = GI50 up to about 1.1 µM and inactive = higher.

How the values were obtained:
Experiment in all cases: DTP human tumour cell line panel, 48 h
HOP-92 = tested on: HOP-92
MDA-MB-231 = tested on: MDA-MB-231
SF-268 = tested on: SF-268
K562 = tested on: K562
Malme-3M = tested on: Malme-3M
HCT-116 = tested on: HCT-116
SK-MEL-2 = tested on: SK-MEL-2
HCT-15 = tested on: HCT-15
EKVX = tested on: EKVX
M14 = tested on: M14
SR = tested on: SR
BT-549 = tested on: BT-549
A498 = tested on: A498
MDA-MB-435 = tested on: MDA-MB-435
786-0 = tested on: 786-0
SN12C = tested on: SN12C
NCI-H23 = tested on: NCI-H23
SW-620 = tested on: SW-620
MCF7 = tested on: MCF7

SMILES | GI50 (HOP-92) | GI50 (MDA-MB-231) | GI50 (SF-268) | GI50 (K562) | GI50 (Malme-3M) | GI50 (HCT-116) | GI50 (SK-MEL-2) | GI50 (HCT-15) [µM] | GI50 (EKVX) | GI50 (M14) | GI50 (SR) | GI50 (BT-549) | GI50 (A498) | GI50 (MDA-MB-435) | GI50 (786-0) | GI50 (SN12C) | GI50 (NCI-H23) | GI50 (SW-620) | GI50 (MCF7)
Nc1ncnc2c1ncn2C1OC(CO)C(O)C1N (centres undefined) | > 100 µM (inactive) | > 100 µM (inactive) | > 100 µM (inactive) | > 100 µM (inactive) | > 100 µM (inactive) | > 100 µM (inactive) | > 100 µM (inactive) | > 100 | > 100 µM (inactive) | > 100 µM (inactive) | > 100 µM (inactive) | > 100 µM (inactive) | > 100 µM (inactive) | > 100 µM (inactive) | > 100 µM (inactive) | > 100 µM (inactive) | > 100 µM (inactive) | > 100 µM (inactive) | 
Cn1c(Nc2ccccc2)c(/C=N\c2ccccc2)c(=O)n(C)c1=O | 41.7 µM (inactive) | 61.4 µM (inactive) | 45.7 µM (inactive) | > 100 µM (inactive) |  | 48.2 µM (inactive) | > 100 µM (inactive) |  |  | > 100 µM (inactive) |  | > 100 µM (inactive) | 80 µM (inactive) | > 100 µM (inactive) | 65.3 µM (inactive) | 69.3 µM (inactive) | 82.6 µM (inactive) | > 100 µM (inactive) | > 100 µM (inactive)
CNCCN[C@@H]1c2cc3c(cc2[C@@H](c2cc(OC)c(O)c(OC)c2)[C@H]2C(=O)OC[C@@H]21)OCO3 |  | 0.37 µM (active) | 0.258 µM (active) | 0.177 µM (active) | 0.288 µM (active) | 0.432 µM (active) | 0.44 µM (active) | 3.21 | 2.23 µM (inactive) | 0.394 µM (active) | 0.0122 µM (active) | 0.207 µM (active) |  | 1.66 µM (inactive) | 0.144 µM (active) | 0.0738 µM (active) | 0.185 µM (active) | 0.269 µM (active) | 0.0296 µM (active)
CCSc1cc(C(=O)OC)c2n(c1=O)CCCC2 |  | > 100 µM (inactive) | > 100 µM (inactive) |  | > 100 µM (inactive) | > 100 µM (inactive) | > 100 µM (inactive) | > 100 | > 100 µM (inactive) | > 100 µM (inactive) |  | > 100 µM (inactive) | > 100 µM (inactive) | > 100 µM (inactive) | > 100 µM (inactive) | > 100 µM (inactive) | > 100 µM (inactive) | > 100 µM (inactive) | > 100 µM (inactive)
N#CC1(C#N)NC(c2ccccc2)C(C#N)(C#N)NC1c1ccccc1 (centres undefined) | 86.7 µM (inactive) | 25.9 µM (inactive) | > 100 µM (inactive) | > 100 µM (inactive) | > 100 µM (inactive) | > 100 µM (inactive) | > 100 µM (inactive) | > 100 | > 100 µM (inactive) | > 100 µM (inactive) |  | > 100 µM (inactive) | > 100 µM (inactive) | > 100 µM (inactive) | > 100 µM (inactive) | > 100 µM (inactive) | > 100 µM (inactive) | > 100 µM (inactive) | > 100 µM (inactive)
CN(C)c1ccc(C(N)=O)cn1 |  | > 100 µM (inactive) | > 100 µM (inactive) | > 100 µM (inactive) | > 100 µM (inactive) | > 100 µM (inactive) | > 100 µM (inactive) | > 100 | > 100 µM (inactive) |  | > 100 µM (inactive) | > 100 µM (inactive) |  | > 100 µM (inactive) | > 100 µM (inactive) | > 100 µM (inactive) | > 100 µM (inactive) | > 100 µM (inactive) | > 100 µM (inactive)
CCOC(=O)C1=CC(C)(C(=O)OCC)Nc2c(nc(SC)n(C)c2=O)N1 (centres undefined) | > 10 µM (inactive) | > 10 µM (inactive) | > 10 µM (inactive) | > 10 µM (inactive) | > 10 µM (inactive) | > 10 µM (inactive) | > 10 µM (inactive) | > 10 | > 10 µM (inactive) | > 10 µM (inactive) |  | > 10 µM (inactive) | > 10 µM (inactive) | > 10 µM (inactive) | > 10 µM (inactive) | > 10 µM (inactive) | > 10 µM (inactive) | > 10 µM (inactive) | > 10 µM (inactive)
CC(=O)c1c(SCCN2CCCCCC2)n(-c2ccccc2)c(=S)n(-c2ccccc2)c1=O | 6.53 µM (inactive) | 14.4 µM (inactive) | 11 µM (inactive) | 2.61 µM (inactive) | 1.51 µM (inactive) | 6.81 µM (inactive) | 19.4 µM (inactive) | 5.61 | 19.2 µM (inactive) | 2.15 µM (inactive) | 1.09 µM (active) | 16.6 µM (inactive) | 13.4 µM (inactive) | 12.9 µM (inactive) | 1.73 µM (inactive) | 5.92 µM (inactive) | 17.3 µM (inactive) | 2.04 µM (inactive) | 
COc1ccc(OC)c(C(=O)c2cccc(C(=O)c3cc(OC)ccc3OC)n2)c1 |  | 58.7 µM (inactive) | 63.4 µM (inactive) | 22.3 µM (inactive) | 80 µM (inactive) | 43.9 µM (inactive) | 23 µM (inactive) | 33.1 | 41.1 µM (inactive) | 33.6 µM (inactive) | 32.7 µM (inactive) | 22.9 µM (inactive) |  |  | 68.9 µM (inactive) | 57.1 µM (inactive) | 20 µM (inactive) | 39.6 µM (inactive) | 26.5 µM (inactive)
N#C/C(=C\c1ccc(F)cc1)c1nc(-c2cc3ccccc3oc2=O)cs1 | 10.3 µM (inactive) | 12.7 µM (inactive) | 16.5 µM (inactive) | > 100 µM (inactive) | 15.7 µM (inactive) | 35.2 µM (inactive) | 30.3 µM (inactive) | 97.5 | 30.8 µM (inactive) | 13.8 µM (inactive) | > 100 µM (inactive) | 12.3 µM (inactive) |  | 54.2 µM (inactive) | 14.8 µM (inactive) | 74 µM (inactive) |  | 40.4 µM (inactive) | 37.8 µM (inactive)
CCOC(=O)C(=[N+]=[N-])C(=O)CN1C(=O)C2CC(C)=C(C)CC2C1O (centres undefined) |  |  | > 100 µM (inactive) | > 100 µM (inactive) | > 100 µM (inactive) | > 100 µM (inactive) | > 100 µM (inactive) |  | > 100 µM (inactive) | > 100 µM (inactive) | > 100 µM (inactive) | > 100 µM (inactive) |  | > 100 µM (inactive) | > 100 µM (inactive) |  | > 100 µM (inactive) | > 100 µM (inactive) | > 100 µM (inactive)
O=C1C=C(C2=CC(=O)C(=O)c3ccccc32)c2ccccc2C1=O | 11.3 µM (inactive) | 15.6 µM (inactive) | 13.5 µM (inactive) | 3.3 µM (inactive) | 3.44 µM (inactive) | 6.65 µM (inactive) | 19.5 µM (inactive) | 11.8 | 34.8 µM (inactive) | 6.46 µM (inactive) |  | 46.6 µM (inactive) | 46.6 µM (inactive) | 1.93 µM (inactive) | 13 µM (inactive) | 27 µM (inactive) | 5.07 µM (inactive) | 5.01 µM (inactive) | 9.98 µM (inactive)
Cc1cc(N(C)C)ccc1/N=N/c1ccc2ncccc2c1 | > 100 µM (inactive) | 84.1 µM (inactive) | > 100 µM (inactive) | 29.8 µM (inactive) | 62.4 µM (inactive) | 59.7 µM (inactive) | > 100 µM (inactive) | 40.6 | 23.6 µM (inactive) | > 100 µM (inactive) | 44.4 µM (inactive) | 35.2 µM (inactive) |  | > 100 µM (inactive) | > 100 µM (inactive) | > 100 µM (inactive) | 59.3 µM (inactive) | > 100 µM (inactive) | 20.3 µM (inactive)
CCOP(=O)(OCC)C(Cc1ccc(Cl)cc1)NS(=O)(=O)c1ccc(C)cc1 (centres undefined) | > 100 µM (inactive) | > 100 µM (inactive) | > 100 µM (inactive) | > 100 µM (inactive) | > 100 µM (inactive) |  | > 100 µM (inactive) | > 100 | > 100 µM (inactive) | > 100 µM (inactive) |  | > 100 µM (inactive) | > 100 µM (inactive) | > 100 µM (inactive) | > 100 µM (inactive) | 67.6 µM (inactive) | > 100 µM (inactive) | > 100 µM (inactive) | > 100 µM (inactive)
C=C1CCC([N+](=O)[O-])[C@](C)(N=O)CC[C@@H]2C1CC2(C)C (some centres undefined) | 19.9 µM (inactive) |  | 31.3 µM (inactive) | 17.3 µM (inactive) | 22 µM (inactive) | 14.8 µM (inactive) | > 10 µM (inactive) | 22.8 | 19 µM (inactive) | 27.4 µM (inactive) | 8.57 µM (inactive) | 14.4 µM (inactive) |  | > 10 µM (inactive) | 20.6 µM (inactive) | 32.4 µM (inactive) | 17.2 µM (inactive) | 16.9 µM (inactive) | 16.6 µM (inactive)
O=c1c2ccc(S(=O)(=O)c3ccc4c(=O)n5c6ccccc6nc5c5cccc3c45)c3cccc(c32)c2nc3ccccc3n12 |  | 19.4 µM (inactive) | 33.5 µM (inactive) |  | > 100 µM (inactive) | > 100 µM (inactive) | 21.3 µM (inactive) | 93.5 | 43.9 µM (inactive) | > 100 µM (inactive) |  | 20 µM (inactive) |  | > 100 µM (inactive) | 29.5 µM (inactive) | > 100 µM (inactive) | 96.6 µM (inactive) |  | > 100 µM (inactive)
CCC(=O)NCCc1c2c3c(ccnc3c3ncsc13)-c1ccccc1N2 [KUANONIAMINE C] |  | 4.02 µM (inactive) | 1.45 µM (inactive) | 1.53 µM (inactive) | 2.62 µM (inactive) | 0.582 µM (active) | 43.2 µM (inactive) | 2.51 | 5.22 µM (inactive) | 2.73 µM (inactive) |  | 2.69 µM (inactive) | 0.989 µM (active) | 2.26 µM (inactive) | 0.791 µM (active) | 0.724 µM (active) | 1.92 µM (inactive) | 1.18 µM (inactive) | 0.0223 µM (active)
